Earlier results on 1 molecule are cited in US20230383297A1, “NOVEL TARGETS FOR REACTIVATION OF PRADER-WILLI SYNDROME-ASSOCIATED GENES” (Duke University, priority 2020, published 2023).

This series deals with PWS cells. Particulars: also causes DNA demethylation genome-wide.

On to `Nc1ncn([C@H]2C[C@H](O)[C@@H](CO)O2)c(=O)n1` [5-Aza-DC], for which the “maternal gene expression from the PWS locus” value is recorded as “reactivate maternal gene expression from the PWS locus”.
